Assay results: patent US20240148745A1, “COMPOUNDS FOR USE IN PROGRESSIVE MULTIPLE SCLEROSIS” (FONDAZIONE CENTRO SAN RAFFAELE, priority 2021, published 2024)

Test system: mouse cortical neurons
Assay: Morphological integrity evaluation, NMDA 8 μM (MAP2 neurite length and branching)
Assay type: cell-based
Details: 3 h pre-treatment, NMDA 8 μM 24 h; Z>0.5 criteria
In short: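 Mouse cortical neurons (14 DIV) pre-treated 3 h with compounds, then exposed 24 h to 8 μM NMDA; fixed, MAP2 immunostained with DAPI. Total neurite length and non-trunk branch number from 15 images/well, triplicates, converted to plate-based Z-scores; NAC positive, staurosporine and NMDA negative controls.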

Structure (SMILES): NCCCC[C@H](NC(=O)[C@@H](Cc1cc(Br)c(O)c(Br)c1)NC(=O)N1CCC(N2Cc3ccccc3NC2=O)CC1)C(=O)N1CCN(c2ccncc2)CC1 [Olcegepant]
- preservation of neurite length and network integrity (branching): preserved both neurite length and the network integrity (branching)
